Paper PMC11210812, “Assessment of polymeric mucin–drug interactions” (PLOS ONE, 2024)

Experiments:
Assay in all cases: mucin fluorescence quenching, Lineweaver-Burk fit
Type in all cases: binding
MUC5B = target: T1, MUC5B (Homo sapiens, UniProt Q9HC84); details: for Kd (μM) / MUC5B: PBS pH 7.4, 37 °C, unreliable (Kd above highest concentration tested)
T1 construct: native secreted polymeric gel-forming mucin, O-glycosylated, disulfide-linked; purified from human cell culture by two-step CsCl density gradient
Description: mucin fluorescence quenching, Lineweaver-Burk fit on MUC5B

MUC5AC = target: T2, MUC5AC (Homo sapiens, UniProt P98088); details: for Kd (μM) / MUC5AC: PBS pH 7.4, 37 °C, unreliable (Kd above highest concentration tested)
T2 construct: native secreted polymeric gel-forming mucin, O-glycosylated, disulfide-linked; purified from human cell culture by two-step CsCl density gradient
Description: mucin fluorescence quenching, Lineweaver-Burk fit on MUC5AC

MUC2 = target: T3, MUC2 (Homo sapiens, UniProt Q02817); details: for Kd (μM) / MUC2: PBS pH 7.4, 37 °C, unreliable (Kd above highest concentration tested)
T3 construct: native secreted polymeric gel-forming mucin, O-glycosylated, disulfide-linked; purified from human cell culture by two-step CsCl density gradient
Description: mucin fluorescence quenching, Lineweaver-Burk fit on MUC2

| Compound | Kd (MUC5B) [µM] | Kd (MUC5AC) [µM] | Kd (MUC2) [µM] | Kd (μM) / MUC5B (MUC5B; drug 0-200 μM) [µM] | Kd (μM) / MUC2 (MUC2; drug 0-200 μM) [µM] | other results |
| --- | --- | --- | --- | --- | --- | --- |
| O=c1[nH]cc(F)c(=O)[nH]1 [5-Fluorouracil] | 143 ± 17 | 124 ± 1.5 | 136 ± 12.1 |  |  |  |
| Cc1cc(=O)n(-c2ccccc2)n1C [Antipyrine] |  |  |  | 386.0 ± 49.3 | 393.1 ± 26.2 | Kd (μM) / MUC5AC (MUC5AC; drug 0-200 μM): 302.0 ± 6.7 µM |
| CO[C@H]1/C=C/O[C@@]2(C)Oc3c(C)c(O)c4c(O)c(c(/C=N/N5CCN(C)CC5)c(O)c4c3C2=O)NC(=O)/C(C)=C\C=C\[C@H](C)[C@H](O)[C@@H](C)[C@@H](O)[C@@H](C)[C@H](OC(C)=O)[C@@H]1C [Rifampicin] |  |  |  |  |  | Kd (μM) / MUC5B (MUC5B; drug 0-10 μM): 44.5 ± 7.1 µM; Kd (μM) / MUC5AC (MUC5AC; drug 0-10 μM): 15.0 ± 1.5 µM; Kd (μM) / MUC2 (MUC2; drug 0-10 μM): 49.7 ± 6.2 µM |
| Cn1c(=O)c2[nH]cnc2n(C)c1=O [Theophylline] | 189 ± 7.2 | 185 ± 5.6 |  |  | 390.2 ± 46.5 |  |
| COC1=CC(=O)C[C@@H](C)[C@]12Oc1c(Cl)c(OC)cc(OC)c1C2=O [Griseofulvin] |  |  |  |  |  | Kd (μM) / MUC5B (MUC5B; drug 0-20 μM): 29.9 ± 5.0 µM; Kd (μM) / MUC5AC (MUC5AC; drug 0-20 μM): 25.4 ± 1.6 µM; Kd (μM) / MUC2 (MUC2; drug 0-20 μM): 45.3 ± 9.6 µM |
| CC(=O)O[C@H]1C(=O)[C@@]2(C)[C@H]([C@H](OC(=O)c3ccccc3)[C@]3(O)C[C@H](OC(=O)[C@H](O)[C@@H](NC(=O)c4ccccc4)c4ccccc4)C(C)=C1C3(C)C)[C@]1(OC(C)=O)CO[C@@H]1C[C@@H]2O [Paclitaxel] |  | 87.6 ± 7 | 163 ± 39.1 | 288.0 ± 24.9 |  |  |
